In ChEMBL document CHEMBL4819145, “Synthesis and evaluation of bifunctional PTP4A3 phosphatase inhibitors activating the ER stress pathway” (Bioorg Med Chem Lett, 2021):
Activity calls are given as the source filed them. The rule behind the calls is not given here.

Assays:
[1] = molecular target: Dual specificity protein phosphatase 3 (Homo sapiens) (UniProt P51452); test: Inhibition of DUSP3 (unknown origin) at 1 uM
MDA-MB-231 [2] = test: Induction of ER stress in human MDA-MB-231 cells assessed as increase in HSPA5A mRNA expression at 2XEC50 measured after 6 hrs by qPCR method; format: functional, cell-based
MDA-MB-231 [3] = test: Induction of ER stress in human MDA-MB-231 cells assessed as increase in sXbp1 mRNA expression at 2XEC50 measured after 6 hrs by qPCR method; format: functional, cell-based
[4] = molecular target: T1, Tyrosine-protein phosphatase non-receptor type 1 (Homo sapiens) (UniProt P18031); test: Inhibition of PTP1B (unknown origin) at 1 uM
T1 sequence (whole entry): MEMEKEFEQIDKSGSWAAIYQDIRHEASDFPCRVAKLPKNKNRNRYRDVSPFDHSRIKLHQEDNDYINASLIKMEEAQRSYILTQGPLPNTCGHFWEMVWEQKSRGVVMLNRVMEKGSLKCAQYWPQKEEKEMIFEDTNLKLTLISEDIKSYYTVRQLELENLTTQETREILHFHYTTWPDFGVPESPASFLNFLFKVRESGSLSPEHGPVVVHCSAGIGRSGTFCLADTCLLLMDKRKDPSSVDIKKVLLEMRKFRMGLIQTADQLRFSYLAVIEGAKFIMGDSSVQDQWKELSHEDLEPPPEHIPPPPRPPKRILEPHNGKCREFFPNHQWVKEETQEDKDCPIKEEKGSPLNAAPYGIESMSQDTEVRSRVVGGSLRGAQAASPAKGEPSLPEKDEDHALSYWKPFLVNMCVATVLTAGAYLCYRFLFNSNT

[5] = molecular target: T2, M-phase inducer phosphatase 2 (Homo sapiens) (UniProt P30305); test: Inhibition of CDC25B (unknown origin) at 1 uM
T2 sequence (whole entry): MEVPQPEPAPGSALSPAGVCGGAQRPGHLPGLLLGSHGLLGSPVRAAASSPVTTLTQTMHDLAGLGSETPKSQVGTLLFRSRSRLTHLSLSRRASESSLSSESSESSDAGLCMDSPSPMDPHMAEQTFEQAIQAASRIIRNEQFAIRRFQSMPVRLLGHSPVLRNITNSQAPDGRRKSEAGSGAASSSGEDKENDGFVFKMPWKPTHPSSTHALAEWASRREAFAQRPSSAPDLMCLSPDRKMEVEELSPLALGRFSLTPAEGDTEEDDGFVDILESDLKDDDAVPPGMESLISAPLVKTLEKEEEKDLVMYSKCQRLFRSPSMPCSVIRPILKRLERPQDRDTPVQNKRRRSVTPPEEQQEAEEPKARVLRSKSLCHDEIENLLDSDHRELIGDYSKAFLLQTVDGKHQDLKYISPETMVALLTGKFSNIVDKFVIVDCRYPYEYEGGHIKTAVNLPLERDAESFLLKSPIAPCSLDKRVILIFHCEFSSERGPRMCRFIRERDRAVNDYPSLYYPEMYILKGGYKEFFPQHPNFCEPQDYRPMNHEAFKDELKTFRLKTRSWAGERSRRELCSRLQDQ

MDA-MB-231 [6] = test: Induction of ER stress in human MDA-MB-231 cells assessed as increase in DDIT3 mRNA expression at 2XEC50 measured after 6 hrs by qPCR method; format: functional, cell-based
MDA-MB-231 [7] = test: cells; settings: Homo sapiens, MDA-MB-231, 72 h
MDA-MB-231 [8] = test: Cytotoxicity against JMS-053-pretreated human MDA-MB-231 cells at 20 to 60 uM measured after 72 hrs by CellTiter-Glo assay; format: functional, cell-based; settings: dose 20-60 µM
MDA-MB-231 [9] = test: Induction of ER stress in human MDA-MB-231 cells assessed as increase in HSPA5A mRNA expression at 2 mM measured after 2 hrs by qPCR method; format: functional, cell-based
MDA-MB-231 [10] = test: Induction of ER stress in human MDA-MB-231 cells assessed as increase in sXbp1 mRNA expression at 2 mM measured after 2 hrs by qPCR method; format: functional, cell-based
MDA-MB-231 [11] = test: Induction of ER stress in human MDA-MB-231 cells assessed as increase in DDIT3 mRNA expression at 2 mM measured after 2 hrs by qPCR method; format: functional, cell-based

Chain of Dual specificity protein phosphatase 3 (Homo sapiens) (P51452 whole entry, looked up): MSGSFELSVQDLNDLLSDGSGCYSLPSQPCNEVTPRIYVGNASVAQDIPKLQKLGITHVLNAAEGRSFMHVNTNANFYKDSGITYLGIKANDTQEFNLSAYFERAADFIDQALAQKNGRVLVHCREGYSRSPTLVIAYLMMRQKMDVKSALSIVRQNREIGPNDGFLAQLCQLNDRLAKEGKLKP

Question: What does the source list for `N=C1C(=O)NC(=O)c2cc(-c3ccc(OCCCCNC(=O)CC45CC6CC(CC(C6)C4)C5)cc3)sc21`?
Answer: inhibition [1]: < 11%; Activity (MDA-MB-231 [2]): Active; Activity (MDA-MB-231 [3]): Active; inhibition [4]: < 11%; inhibition [5]: < 11%; Activity (MDA-MB-231 [6]): Active

Question: With `O=C(CC12CC3CC(CC(C3)C1)C2)NCCCCO` as the compound, how does the EC50 (MDA-MB-231 [7]) read?
Answer: > 50 µM

Question: What about the Activity (MDA-MB-231 [8]) of the same compound?
Answer: inactive

Question: What does the source list for `OC(CS)C(O)CS` (stereo unspecified)?
Answer: Activity (MDA-MB-231 [9]): Active; Activity (MDA-MB-231 [10]): Active; Activity (MDA-MB-231 [11]): Active
